Measured values: US20250064890A1, “PROTEIN COMPOSITIONS FOR THE TREATMENT OF INFLAMMATORY DISEASES” (Unichem Laboratories Limited, priority 2021, published 2025)
Like-named read-outs stand apart in the source and are kept apart here.

How the values were obtained:
[1] = tested on: NF-kB; assay: Multiplex analysis, chemotherapy (5-FU), TR146 cell lysates; type: cell-based, human
Experimental: (§1) Oral buccal mucosal cells (TR146) cells were incubated overnight at 37° C. in 5% CO2 incubator. […] The cells were then stimulated with 5-FU (10 mM) for another 24h for chemotherapy and with gamma radiation (3.5 kGy) using Cobalt 60 for radiotherapy. After 24 h, cell culture supernatants were collected from each well and stored at −20° C. till multiplex analysis. For NF-kB estimations, cell lysates were prepared. Levels of biomarkers were estimated using Magpix® multiplex machine. The cells treated with Amifostine (along with 5-FU or radiation) were considered as positive control (PC). Untreated cells (5-FU or radiation alone treated) were used as negative control (NC).
(§2) The percent modulation in each sample was determined as follows:
(§3) [{Concentration of biomarkers (pg/ml) in Control cells (5-FU or radiation alone treated)−Concentration of biomarkers (pg/ml) in SEQ ID NO: 2+5-FU or radiation treated cells)}/Concentration of biomarkers (pg/ml) in Control cells (5-FU or radiation alone treated)]*100

[2] = tested on: oral (buccal) mucosa cells (TR146); assay: Cytoprotective effect against 5-FU induced damage (MTT); type: cell-based, human
Experimental: The cell viability was assessed by (MTT) assay and compared with positive control (Cells treated with Amifostine, EGCG and EGF and negative assay (untreated cells), wherein the control was the cells that underwent chemotherapy/radiotherapy.
(§4) The protective effect of the recombinant lectin on survival of TR146 cells against 5-FU induced damage was determined using following calculations:
(§5) The viability of cells was determined as: % Cell viability=(100−% Cytotoxicity); • where, the percentage cytotoxicity corresponding to each treatment was calculated as: % Cytotoxicity=[(R−X)/R]*100, wherein X=Absorbance of cells treated with 5-FU or radiation damage/TI+5-FU, R=Absorbance of Control cells (Untreated) and Percentage protection was calculated as:
(§6) {(Absorbance of TI+5-FU or radiation)−(Absorbance of 5-FU or radiation alone)/(Absorbance of Untreated)−(Absorbance of 5-FU alone)}*100

[3] = tested on: oral (buccal) mucosa cells (TR146); assay: Restoration of mitochondrial membrane potential (JC-1) against 5-FU induced damage; type: cell-based, human; details: for MMP: mitochondrial membrane potential, red/green JC-1 fluorescence ratio
Experimental: (§7) Oral buccal mucosal cells (TR146) were incubated overnight in 5% CO2 incubator at 37° C. for 24 h. […] After 24 h of treatment, cells were exposed to damage (5-FU 5 mM) for 1.25 h for chemotherapy induced inflammation and exposed to gamma radiation (3.5 kGy) using Cobalt 60 for radiation induced inflammation. After the exposure, the anti-apoptotic effect of SEQ ID NO 2 was determined by restoration of mitochondrial membrane depolarization by JC-1 staining and reduction in apoptotic cell populations (Annexin positive and subG0/G1 cells in cell cycle analysis).
(§8) After incubation, the supernatants were discarded and 100 μl of JC1-dye solution (prepared by diluting 1 mM DMSO stock into 10 μM in 1×PBS) was added to each well. The cells were then incubated with the dye in CO2 incubator at 37° C. for 15 min, after which the supernatant was removed, and the cells were washed twice with 1×PBS. 100 μl of 1×PBS was finally added to each well. Red fluorescence (excitation 550 nm, emission 600 nm) and green fluorescence (excitation 485 nm, emission 535 nm) were measured using Biotek Synergy HT plate reader. The mitochondrial membrane potential (Δψm) was calculated as the ratio of intensity of red fluorescence to intensity of green fluorescence.
(§9) The percentage increase/restoration in mitochondrial membrane potential (MMP) was calculated as: % Increase=[(R−X)/R]*100 • Where, X=Δψm corresponding to TI+5-FU treated cells or TI+radiation treated cells; R=Δψm corresponding to control cells (FU damaged or Radiation damaged alone)

[4] = tested on: oral (buccal) mucosa cells (TR146); type: cell-based, human
Experimental: as §4, §5, §6

[5] = tested on: NF-kB; assay: Multiplex analysis, radiotherapy, TR146 cell lysates; type: cell-based, human
Experimental: as §1, §2, §3

[6] = tested on: oral (buccal) mucosa cells (TR146); assay: Restoration of mitochondrial membrane potential (JC-1) against radiation induced damage; type: cell-based, human; details: for MMP: red/green JC-1 fluorescence ratio
Experimental: as §7, §8, §9

[7] = tested on: oral (buccal) mucosa cells (TR146); assay: Annexin positive cell population against 5-FU damage; type: cell-based, human
[8] = tested on: oral (buccal) mucosa cells (TR146); details: human, 24 h
Experimental: Non-cytotoxic concentration of recombinant lectin having the amino acid sequence of SEQ ID NO: 2 was determined by treating oral (buccal) mucosa cells (TR146) with varying concentration of SEQ ID NO: 2 for 24 hrs and determining the cell viability using MTT assay.

[9] = tested on: oral (buccal) mucosa cells (TR146); assay: Annexin positive cell population against radiation damage; type: cell-based, human; details: for % Apoptotic cells: Annexin positive
Experimental: as §7
To determine the reduction in apoptotic cell populations using annexin-v staining cells were gently harvested into pre-labeled sterile centrifuge tubes and centrifuged at 300×g for 5-7 min. Supernatant were discarded and the pellet was resuspended in 200 μl of fresh culture medium. 100 μl of cell suspension was transferred into pre-labeled sterile centrifuge tubes. 100 μl of Annexin-V reagent was added to each tube and incubated for 30 min at RT in dark. Cells stained for Annexin-V were then transferred into 96-well plates and acquired on flow cytometer (Guava technologies). Percentage of Annexin-V positive cells was calculated as follows:
={[% Annexin positive cells in 5-FU or radiation alone]−[% Annexin positive cells in (TI+5-FU) or (TI+radiation)]/% Annexin positive cells in 5-FU or radiation alone}*100

[10] = 0.1 μg/ml + Radiation (3.5 kGy)

## NCCCNCCSP(=O)(O)O [Amifostine, reference compound]
[1]; 1 μg/ml + 5-FU (10 mM)
  Percentage Inhibition NF-kB: 100%
[1]; 10 μg/ml + 5-FU (10 mM)
  Percentage Inhibition NF-kB: 48.2%
[1]; 50 μg/ml + 5-FU (10 mM)
  Percentage Inhibition NF-kB: 14.2%
[2]; 1 μg/ml + 5-FU (5 mM)
  % Protection: 4.1%
[2]; 5 μg/ml + 5-FU (5 mM)
  % Protection: 28.8%
[2]; 10 μg/ml + 5-FU (5 mM)
  % Protection: 55.2%
[2]; 25 μg/ml + 5-FU (5 mM)
  % Protection: 37.5%
[3]; 1 μg/ml + 5FU
  % Increase in MMP (with respect to control): 68.7%
  MMP: 14.3
[3]; 5 μg/ml + 5FU
  % Increase in MMP (with respect to control): 64.9%
  MMP: 14
[3]; 10 μg/ml + 5FU
  % Increase in MMP (with respect to control): 85.3%
  MMP: 15.7
[3]; 25 μg/ml + 5FU
  % Increase in MMP (with respect to control): 90%
  MMP: 16.1
[3]; 50 μg/ml + 5FU
  % Increase in MMP (with respect to control): 105.2%
  MMP: 17.4
[4]; 1 μg/ml + Radiation (3.5 kGy)
  % Protection: 7.7%
[4]; 5 μg/ml + Radiation (3.5 kGy)
  % Protection: 22.2%
[4]; 10 μg/ml + Radiation (3.5 kGy)
  % Protection: 43.1%
[4]; 25 μg/ml + Radiation (3.5 kGy)
  % Protection: 12%
[5]; [10]
  Percentage Inhibition NF-kB: 15.8%
[5]; 10 μg/ml + Radiation (3.5 kGy)
  Percentage Inhibition NF-kB: 17.7%
[6]; [10]
  % Increase in MMP (with respect to control): 28.2%
  MMP: 5.90
[6]; 1 μg/ml + Radiation (3.5 kGy)
  % Increase in MMP (with respect to control): 39.7%
  MMP: 6.43
[6]; 10 μg/ml + Radiation (3.5 kGy)
  % Increase in MMP (with respect to control): 35.2%
  MMP: 6.23
[7]; 1 μg/ml + 5FU (10 mM)
  % Apoptotic cells (Annexin +ve): 2.4%
  % Decrease in Apoptotic cells (with respect to 5-FU): 85.7%
[7]; 10 μg/ml + 5FU (10 mM)
  % Apoptotic cells (Annexin +ve): 2.6%
  % Decrease in Apoptotic cells (with respect to 5-FU): 84.5%
[7]; 50 μg/ml + 5FU (10 mM)
  % Apoptotic cells (Annexin +ve): 2.8%
  % Decrease in Apoptotic cells (with respect to 5-FU): 82.9%
[8]
  non-cytotoxic concentration range: 1 to 25 µg/mL
[9]; [10]
  % Decrease in Apoptotic cells (with respect to radiation control): 47.3%
  % Apoptotic cells: 7.2%
[9]; 1 μg/ml + Radiation (3.5 kGy)
  % Decrease in Apoptotic cells (with respect to radiation control): 32.6%
  % Apoptotic cells: 9.2%
[9]; 10 μg/ml + Radiation (3.5 kGy)
  % Decrease in Apoptotic cells (with respect to radiation control): 63%
  % Apoptotic cells: 5.1%
